In series [1] the target is T1, vanilloid receptor (Rattus norvegicus, UniProt O35433).
T1 construct: DRG nerve cells from the primary culture of 2 days were equilibrated by washing 4 times; endogenous in cells; host or cells: primary culture of dorsal root ganglion neurons from neonatal SD rats
The series is described as follows: 45Ca influx test (calcium uptake) in primary cultured DRG neurons, capsaicin 0.5 μM. The series is classed as cell-based. As for the experimental part:
1) Separation of Spinal Dorsal Root Ganglia (DRG) in Newborn Rats and Primary Culture Thereof
Neonatal (2-3 day old or younger than 2-3 day old) SD rats were put in ice for 5 minutes to anesthetize and disinfected with 70% ethanol. […] The DRG were incubated sequentially at 37° C. for 30 mins in 200 U/ml collagenase and 2.5 mg/ml trypsin, separately. The ganglia were washed twice with DME/F12 medium supplemented with 10% horse serum, triturated through a fire-polished Pasteur pipette, filtered through Nitex 80 membrane to obtain single cell suspension and the suspension was washed once more. This was subjected to centrifugation, then resuspended in cell culture medium at certain level of cell density. As the cell culture medium, DME/F12 medium supplemented with 10% horse serum was diluted with identical medium conditioned by C6 glioma cells 2 days on a confluent monolayer (1:1), and NGF (Nerve Growth Factor) was added to adjust 200 ng/ml as final concentration. After the cells were grown 2 days in medium where cytosine arabinoside (Ara-C, 100 μM) was added to kill dividing nonneuronal cells, medium was changed to one without Ara-C. The resuspended cells were plated at a density of 1500-2000 neurons/well onto Terasaki plates previously coated with 10 μg/ml poly-D-ornithine.
2) ^45Ca Influx Experiments
DRG nerve cells from the primary culture of 2 days were equilibrated by washing 4 times with HEPES (10 mM, pH 7.4)-buffered Ca^2+, Mg^2+-free HBSS (H-HBSS). The solution in each well was removed from the individual well. Medium containing the test compound plus capsaicin (final concentration 0.5 μM) and ^45Ca (final concentration 10 μCi/ml) in H-HBSS was added to each well and incubated at room temperature for 10 mins. Terasaki plates were washed five times with H-HBSS and dried at room temperature. To each well, 0.3% SDS (10 μl) was added to elute ^45Ca. After the addition of scintillation cocktail of into each well, the amount of ^45Ca influx into neuron was measured by counting radioactivity.

Series [2] is described as follows: PK study in rats, single oral administration. The format is in vivo, rat. Set-up: AUC: concentration or dose not given beside the values. The settings on record: rat, single oral administration, plasma; for AUC / Cmax / Tmax: Table 2; for half-life: Table 2, read-out: T½ (converted). As for the experimental part: Pharmacokinetics of compounds in rats were analyzed using the following experiment. Rats were fasted overnight prior to administration and until approximately 4 hours after administration. Rats were given a single oral administration of compound at same dose. Administration volume was 10 ml/kg. Blood samples were collected from the retro-orbital sinus at various times over the following 7 hrs. Immediately after each collection, plasmas were separated from blood cells by centrifugation and stored at −20° C. until the analysis was performed. The plasma samples were analyzed using a reverse phase high-performance chromatography (HPLC) method.

Setting [3] is: rat DRG neurons, capsaicin 0.5 μM, 45Ca, read-out: Antagonist Calcium Uptake Test (IC50).

Like-named read-outs stand apart in the source and are kept apart here.

T1 sequence (O35433 whole entry): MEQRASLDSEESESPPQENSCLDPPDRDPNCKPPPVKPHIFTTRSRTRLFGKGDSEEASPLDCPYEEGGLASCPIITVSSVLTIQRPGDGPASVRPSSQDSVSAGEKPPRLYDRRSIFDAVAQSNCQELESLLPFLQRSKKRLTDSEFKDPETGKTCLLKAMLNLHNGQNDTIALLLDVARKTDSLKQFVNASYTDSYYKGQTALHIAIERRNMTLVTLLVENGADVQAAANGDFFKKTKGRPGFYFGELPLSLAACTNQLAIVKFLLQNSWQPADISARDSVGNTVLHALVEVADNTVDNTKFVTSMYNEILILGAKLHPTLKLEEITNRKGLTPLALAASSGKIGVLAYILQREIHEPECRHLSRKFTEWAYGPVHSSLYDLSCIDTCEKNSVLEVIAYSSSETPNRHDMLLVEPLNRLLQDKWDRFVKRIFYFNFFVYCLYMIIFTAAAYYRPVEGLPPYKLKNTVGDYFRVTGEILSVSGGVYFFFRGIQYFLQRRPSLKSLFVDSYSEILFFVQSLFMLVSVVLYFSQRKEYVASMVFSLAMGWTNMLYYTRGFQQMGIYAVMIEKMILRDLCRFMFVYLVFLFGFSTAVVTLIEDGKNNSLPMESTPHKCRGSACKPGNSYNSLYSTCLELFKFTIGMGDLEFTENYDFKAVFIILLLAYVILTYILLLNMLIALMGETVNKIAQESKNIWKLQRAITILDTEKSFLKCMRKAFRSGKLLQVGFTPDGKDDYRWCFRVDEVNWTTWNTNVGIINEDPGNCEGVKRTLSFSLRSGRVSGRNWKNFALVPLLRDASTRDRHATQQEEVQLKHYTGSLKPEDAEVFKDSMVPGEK

Regarding `CCCNc1cc(C(F)(F)F)ccc1/C=C/C(=O)N[C@H](C)c1cc(F)c(NS(C)(=O)=O)c(F)c1` [Example 1, (R)—N-[1-(3,5-Difluoro-4-methanesulfonylamino-phenyl)-ethyl]-3-(2-propylamino-4-trifluoromethyl-phenyl)-acrylamide], the IC50 in series [1] (setting [3]) worked out at 19 nM. In series [2], the AUC is 1940 ng·h/mL, the Cmax turned out to be 466 ng/mL, the Tmax was 3.5 h and the half-life is 1.4 h.

Regarding `CCCNc1cc(C(F)(F)F)ccc1/C=C/C(=O)NCc1cc(F)c(NS(C)(=O)=O)c(F)c1` [Example 2, N-(3,5-Difluoro-4-methanesulfonylamino-benzyl)-3-(2-propylamino-4-trifluoromethyl-phenyl)-acrylamide], in series [1] (setting [3]), the IC50 amounted to 170 nM. In series [2], the AUC worked out at 7150 ng·h/mL, the concentration peaked (Cmax) at 1420 ng/mL, the time to peak (Tmax) was found to be 2 h and the half-life is 3.55 h.

As to `CCCOc1cc(C(F)(F)F)ccc1/C=C/C(=O)N[C@H](C)c1cc(F)c(NS(C)(=O)=O)c(F)c1` [Example 5, (R)—N-[1-(3,5-Difluoro-4-methanesulfonylamino-phenyl)-ethyl]-3-(2-propoxy-4-trifluoromethyl-phenyl)-acrylamide], in series [1] (setting [3]), the IC50 was 120 nM. In addition, in series [2], the AUC worked out at 22500 ng·h/mL, the Cmax came out at 2630 ng/mL, the Tmax came to 3.5 h and the half-life is 4.3 h.

`CCCc1cc(C(F)(F)F)ccc1/C=C/C(=O)N[C@H](C)c1cc(F)c(NS(C)(=O)=O)c(F)c1` [Example 21, N-[1-(3,5-Difluoro-4-methanesulfonylamino-phenyl)-ethyl]-3-(2-propyl-4-trifluoromethyl-phenyl)-acrylamide]: the IC50 in series [1] (setting [3]) worked out at 19 nM. In addition, in series [2], the AUC was 16400 ng·h/mL, the peak level (Cmax) was 2720 ng/mL, the Tmax is 2 h and the half-life is 3.5 h.

Regarding `CCCc1cc(C(F)(F)F)ccc1/C=C/C(=O)NCc1cc(F)c(NS(C)(=O)=O)c(F)c1` [Example 22, N-(3,5-Difluoro-4-methanesulfonylamino-benzyl)-3-(2-propyl-4-trifluoromethyl-phenyl)-acrylamide], the IC50 in series [1] (setting [3]) worked out at 160 nM. In series [2], the AUC is 19200 ng·h/mL, the Cmax turned out to be 3660 ng/mL, the Tmax turned out to be 2 h and the half-life is 2.58 h.

As for `CCCCc1cc(C(F)(F)F)ccc1/C=C/C(=O)N[C@H](C)c1cc(F)c(NS(C)(=O)=O)c(F)c1` [Example 24, (R)-3-(2-Butyl-4-trifluoromethyl-phenyl)-N-[1-(3,5-difluoro-4-methanesulfonylamino-phenyl)-ethyl]-acrylamide], the 50% inhibitory concentration (IC50) in series [1] (setting [3]) amounted to 44 nM. For the same molecule, in series [2], the exposure (AUC) came out at 5690 ng·h/mL, the peak level (Cmax) was 1190 ng/mL, the Tmax stood at 2 h and the half-life is 2.08 h.

For the molecule `C=Cc1cc(CNC(=O)/C=C/c2ccc(C(F)(F)F)cc2NC(C)C)cc(F)c1NS(C)(=O)=O` [Example 54, N-(3-fluoro-4-methanesulfonylamino-5-vinyl-benzyl)-3-(2-isopropylamino-4-trifluoromethyl-phenyl)-acrylamide], in series [1] (comparison with comparative compounds F and G, read-out: IC50 value), the IC50 came out at 27 nM. Moreover, in series [2], the AUC worked out at 5320 ng·h/mL, the concentration peaked (Cmax) at 772 ng/mL, the Tmax is 2 h and the half-life is 4.05 h.

These data come from patent US8557872B2, “Compounds, isomer thereof, or pharmaceutically acceptable salts thereof as vanilloid receptor antagonist; and pharmaceutical compositions containing the same” (Amorepacific Corporation, priority 2008, dated 2013).
